{"source": "ChEMBL document CHEMBL1131148", "about": "“Synthesis and modeling studies of a potent conformationally rigid muscarinic agonist: 1-azabicyclo[2.2.1]heptanespirofuranone” (J Med Chem, 1998)", "key": {"Rattus norvegicus": {"species_on_record": "Rattus norvegicus", "test": "Stimulation of phosphatidyl inositol(PI) hydrolysis as compared to that of carbachol, was determined in rat hippocampal slices", "format": "functional, Hippocampus"}, "[1]": {"target": "Muscarinic acetylcholine receptor", "test": "Binding affinity against Muscarinic acetylcholine receptor using [3H]-OXO-M as the radioligand.", "format": "protein assay, Rattus norvegicus"}}}
{"molecule": "C[C@H]1OCC2(CN3CCC2C3)O1", "note": "(stereo not given in full)", "values": [{"measurement": "Intrinsic activity", "setting": "Rattus norvegicus", "value": 75, "unit": "%"}, {"measurement": "Ki", "setting": "[1]", "value": 14, "unit": "nM"}]}
{"molecule": "CC1O[C@@]2(CC1=O)CN1CCC2CC1", "note": "(stereo not given in full)", "values": [{"measurement": "Intrinsic activity", "setting": "Rattus norvegicus", "value": 9, "unit": "%"}]}
{"molecule": "C[N+](C)(C)CCOC(N)=O.[Cl-]", "note": "[CARBACHOL]", "values": [{"measurement": "Intrinsic activity", "setting": "Rattus norvegicus", "value": 100, "unit": "%"}]}
{"molecule": "CN1O[C@@]2(CC1=O)CN1CCC2C1", "note": "(stereo not given in full)", "values": [{"measurement": "Intrinsic activity", "setting": "Rattus norvegicus", "value": 22.6, "unit": "%"}, {"measurement": "Ki", "setting": "[1]", "value": 4, "unit": "nM"}]}
{"molecule": "CC1OC2(CCN(C)CC2)CC1=O", "note": "(stereo not given)", "values": [{"measurement": "Intrinsic activity", "setting": "Rattus norvegicus", "value": 51, "unit": "%"}, {"measurement": "Ki", "setting": "[1]", "value": 6.7, "unit": "nM"}]}
{"molecule": "CCC[C@@H]1O[C@@]2(CC1=O)CN1CCC2C1", "note": "(stereo not given in full)", "values": [{"measurement": "Intrinsic activity", "setting": "Rattus norvegicus", "value": 0, "unit": "%"}, {"measurement": "Ki", "setting": "[1]", "value": 2, "unit": "nM"}]}
{"molecule": "C[C@@H]1O[C@@]2(CC1=O)CN1CCC2C1", "note": "(stereo not given in full)", "values": [{"measurement": "Intrinsic activity", "setting": "Rattus norvegicus", "value": 81, "unit": "%"}, {"measurement": "Ki", "setting": "[1]", "value": 0.8, "unit": "nM"}]}
{"molecule": "Cc1noc(C2CN3CCC2C3)n1", "note": "(stereo not given)", "values": [{"measurement": "Intrinsic activity", "setting": "Rattus norvegicus", "value": 106, "unit": "%"}, {"measurement": "Ki", "setting": "[1]", "value": 0.2, "unit": "nM"}]}
{"molecule": "CC[C@H]1O[C@@]2(CC1=O)CN1CCC2C1", "note": "(stereo not given in full)", "values": [{"measurement": "Intrinsic activity", "setting": "Rattus norvegicus", "value": 39, "unit": "%"}, {"measurement": "Ki", "setting": "[1]", "value": 3.7, "unit": "nM"}]}
{"molecule": "CCC[C@H]1O[C@@]2(CC1=O)CN1CCC2C1", "note": "(stereo not given in full)", "values": [{"measurement": "Intrinsic activity", "setting": "Rattus norvegicus", "value": 0, "unit": "%"}, {"measurement": "Ki", "setting": "[1]", "value": 2, "unit": "nM"}]}
{"molecule": "CC[C@@H]1O[C@@]2(CC1=O)CN1CCC2C1", "note": "(stereo not given in full)", "values": [{"measurement": "Intrinsic activity", "setting": "Rattus norvegicus", "value": 47, "unit": "%"}, {"measurement": "Ki", "setting": "[1]", "value": 0.4, "unit": "nM"}]}
